Data from patent publication US9803021B2 (The Regents of the University of California, priority 2012, dated 2017).

How the values were obtained:
OCI-My 5 cells = experiment: Cell proliferation assay (3[H]-thymidine incorporation); assay type: cell-based, human; settings: OCI-My 5, 0.3 pM-25 nM, 3 days
Protocol: The proliferative status of the cells was determined by measuring ^3[H]-thymidine incorporation.

IRF-4 in U266 = experiment: Western blot of IRF-4; assay type: cell-based, human; settings: U266, 1 nM, 2 days
Protocol: Cells were lysed using RIPA buffer (50 mM Tris HCl pH 8, 150 mM NaCl, 1% NP-40, 0.5% sodium deoxycholate, 0.1% SDS) containing a protease inhibitor cocktail (Roche Applied Science, Indianapolis, Ind.). The cytosolic fractions were reduced with β-mercaptoethanol and separated by SDS-PAGE. Following transfer to nitrocellulose membrane (Whatman, Piscataway, N.J.) and blocking, samples were incubated with the following primary rabbit antibodies: anti-IRF4 (Epitomics, Berlingham, Calif.), anti-glyceraldehyde-3-phosphate dehydrogenase (GAPDH; Sigma), anti-ppRb Ser807/811 (Santa Cruz Biotechnology, Santa Cruz, Calif.), anti-cyclin D (Millipore, Billerica, Mass.), or anti-β tubulin (Abcam, Cambridge, Mass.). Secondary anti-rabbit IgG-HRP (GE Healthcare, Billerica, Mass.) was used and the blots were developed using enhanced chemiluminescence (ECL; Thermo Scientific, Waltham, Mass.).
Cells were lysed using RIPA buffer (50 mM Tris-HCl pH 8, 150 mM NaCl, 1% NP-40, 0.5% sodium deoxycholate, 0.1% SDS) containing a protease inhibitor cocktail (Roche Applied Science). The cytosolic fractions were reduced with β-mercaptoethanol and separated by SDS PAGE. […] Films were imaged using a Multilmage™ Light Cabinet (Alpha Innotech Corp.) and analyzed using NIH Image J. Bands were normalized to a GAPDH loading control and expressed as percentage band intensity of untreated cells.

U266 tumors = experiment: U266 xenograft model in NSG mice; settings: U266 s.c.
Protocol: For U266 tumors, NOD scid IL-2 receptor gamma chain knock out (NSG) mice were injected subcutaneously with 1×10^7 U226 cells and treated on days 14, 16 and 18 with 100 μg of the indicated proteins. […] Survival was monitored as well as the size of the tumors.
For U266 tumors, experiments were carried out as described above except that NOD-scid IL2rγ^null (NSG) mice were used.

8226/Dox40 = experiment: MTS assay (cell viability / metabolic activity); assay type: cell-based, human; settings: 8226/Dox40, 3 days
Protocol: (§1) Percent cell viability was determined using MTS solution (Promega, Madison, Wis.) by measuring absorbance at 490 nm using a Synergy HT Multi-Detection Microplate Reader (BioTek Instruments, Inc., Winooski, Vt.) with untreated cells being 100%. GraphPad Prism (GraphPad Software Inc., La Jolla, Calif.) was used to analyze data by non-linear regression with the log (inhibitor) vs. the response with a variable slope with the IC50 calculated. Data are expressed as a percentage of maximum metabolic activity. The experiments were performed in triplicate.
(§2) To determine if the HMCLs were sensitive to treatment with IFNα fusion protein, HMCLs were incubated with varying concentrations of anti-CD138-IFNα, and cell viability was assessed. Anti-CD138-IFNα was used to target IFNα to the MM cell lines while anti-CD20-IFNα was used as an untargeted control. After 3 days of treatment, cell viability was measured by MTS activity. The MM cell lines differed in their response to treatment with the fusion proteins.

Delta 47 = experiment: MTS assay (cell viability / metabolic activity); assay type: cell-based, human
Protocol: as §1, §2

XG-2 = experiment: MTS assay (cell viability / metabolic activity); assay type: cell-based, human; settings: XG-2, 3 days
Protocol: as §1, §2

OCI-My 5 tumors = experiment: OCI-My5 xenograft model in SCID mice; assay type: in vivo, mouse; settings: OCI-My5 s.c.
From the text: Eight mice were included in each group.
Each group consisted of eight mice.

Daudi cells = experiment: MTS cell viability assay; assay type: cell-based, human; settings: 72 h / 3 day incubation
Protocol: as §1
Metabolic activity was determined using MTS solution (Promega) by measuring absorbance at 490 nm using a Synergy HT Multi-Detection Microplate Reader (BioTek Instruments Inc.) with untreated cells being 100%. GraphPad Prism (GraphPad Software Inc.) was used to analyze data by non-linear regression with the log (inhibitor) versus the response with a variable slope. Data are expressed as a percentage of maximum metabolic activity. The experiments were performed in triplicate.

MM1-144 = experiment: Cell cycle analysis (PI DNA content, flow cytometry); assay type: cell-based, human; settings: MM1-144, 500 pM, 4 days
Protocol: (§3) Cells were incubated with 1 ml of hypotonic DNA staining buffer (1 mg/ml sodium citrate, 100 μg/ml PI, 20 μg/ml RNase A, and 0.3% Triton X-100 in dH2O) for 30-60 min at 4° C. in the dark. Cells were analyzed by flow cytometry and cell cycle analysis performed using FlowJo software with the Watson Model.
(§4) Cells were incubated with 1 ml of hypotonic DNA staining buffer (1 mg/ml sodium citrate, 100 μg/ml PI, 20 μg/ml RNase A, and 0.3% Triton X-100) for 30-60 minutes at 4° C. in the dark. Cells were analyzed by flow cytometry and cell cycle analysis performed using FlowJo software with the Watson Model.

U266 = experiment: as above; assay type: cell-based, human; settings: U266, 500 pM, 4 days
Protocol: as §3, §4

NCI-H929 = experiment: as above; assay type: cell-based, human; settings: NCI-H929, 500 pM, 4 days
Protocol: as §3, §4

ANBL-6 = experiment: as above; assay type: cell-based, human; settings: ANBL-6, 500 pM, 4 days
Protocol: as §3, §4

OCI-My5 = experiment: as above; assay type: cell-based, human; settings: OCI-My5, 500 pM, 4 days
Protocol: as §3, §4

Substance: anti-CD138-IFNα: Fusion protein: murine B-B4 anti-CD138 variable regions, human IgG1κ constant regions, human IFNα2 fused to the antibody C-terminus via SGGGGS linker
- proliferation (3[H]-thymidine incorporation), result in words (OCI-My 5 cells): greater effect than IFNα alone
- IRF-4 expression (Western blot) (IRF-4 in U266): decrease was similar
- survival / protection against tumor growth, result in words (U266 tumors; 100 μg on days 14, 16, 18): much more effective than untargeted anti-DNS-IFNα
- survival / protection against tumor growth, result in words (U266 tumors; 100 μg on days 14, 16, 18, listed as anti-CD138-IFNα2): highest levels of protection
- cell viability (MTS assay), result in words (8226/Dox40): intermediate effect
- cell viability (MTS assay), result in words (8226/Dox40; listed as Anti-CD138-IFNα2): some effect was observed only at high concentrations
- cell viability (MTS assay), result in words (Delta 47; Delta 47, 3 days): little or no effect
- cell viability (MTS assay), result in words (Delta 47; Delta 47, treatment increased to 4 days (data not shown)): decrease in viability
- cell viability (MTS assay), result in words (XG-2): little or no effect
- survival / protection, result in words (OCI-My 5 tumors; 100 μg i.v. on days 14, 16, 18): significant increase in survival
- survival / protection, result in words (OCI-My 5 tumors; 100 μg i.v. on days 14, 16, 18, listed as anti-CD138-IFNα2): greater protection
- cell viability (MTS assay), result in words (Daudi cells): just as effective as recombinant IFNα
- % G1 (MM1-144): 22.6%
- % G2/M (MM1-144): 34.3%
- % S (MM1-144): 29.9%
- >G2 (MM1-144): 11.2%
- Sub G0/G1 (MM1-144): 11.3%
- % G1 (U266): 53.9%
- % G2/M (U266): 15.1%
- % S (U266): 21.4%
- >G2 (U266): 5.5%
- Sub G0/G1 (U266): 13.2%
- % G1 (NCI-H929): 41.9%
- % G2/M (NCI-H929): 24.3%
- % S (NCI-H929): 21.0%
- >G2 (NCI-H929): 8.2%
- Sub G0/G1 (NCI-H929): 18.9%
- % G1 (ANBL-6): 63.6%
- % G2/M (ANBL-6): 18.0%
- % S (ANBL-6): 14.0%
- >G2 (ANBL-6): 0.0%
- Sub G0/G1 (ANBL-6): 19.6%
- % G1 (OCI-My5): 25.6%
- % G2/M (OCI-My5): 20.5%
- % S (OCI-My5): 49.0%
- >G2 (OCI-My5): 1.5%
- Sub G0/G1 (OCI-My5): 17.9%
- changes in cell cycle / DNA content, result in words (OCI-My5): did not cause apoptosis or blocks to cell cycle progression
